Several values for one entry are separate records, joined by “and”; a condition that tells them apart may be missing. Equal entries are not always repeated.
What was measured:
[1] = system: Colinus virginianus
[2] = system: Rattus norvegicus
[3] = system: Anas platyrhynchos; conditions: short-term; oral; feed; mortality

With `Cn1cc(C(=O)Nc2ccc(F)cc2-c2ccc(Cl)c(Cl)c2)c(C(F)F)n1` [Bixafen] the LC50 ([1]; acute, oral, diet, mortality) was over 1160 mg/kg-day, the LD50 ([1]; acute, oral, mortality) was over 2000 mg/kg-day and the NOEC ([1]; reproduction developmental) was 24.5 mg/kg-day and 30 mg/kg-day. The LD50 ([2]; acute, oral, mortality) was over 5000 mg/kg-day, the NOEL ([2]; chronic, body weight) was 33.3 mg/kg-day and the NOAEL ([2]; chronic, duration: 2 years, organ weight) was 2 mg/kg-day. The NOAEL ([2]; developmental, development) was 20 mg/kg-day, the NOAEL ([2]; subchronic, duration: 90 days, oral, organ weight) was 12.9 mg/kg-day and the LC50 [3] was over 1550 mg/kg-day.

Source: EPA's ToxValDB 9.5 (doi:10.2903/j.efsa.2012.2917)
